Laboratory results published in US20150297761A1, “PEPTIDIC STRUCTURES INCORPORATING AN AMINO ACID METAL COMPLEX AND APPLICATIONS IN MAGNETIC RESONANCE IMAGING” (THE GENERAL HOSPITAL CORPORATION, priority 2012, published 2015).

Columns and labels:
[1] = Ligand challenge, equilibrium constant Kcomp of [Gd(DTPA)(H2O)]2− vs. L; assay type: physicochemical; details: calculated from literature thermodynamic data
Method: As a means of assessing thermodynamic stability relative to other Gd(III)-complexes, [Gd(CyPic3A)(H2O)2]^− was challenged with DTPA in pH 7.4 25 mM Tris buffer. […] From this information it was possible to deduce equilibrium constants (Kcomp) for the competition reaction described in Equation 5,^31 where L=DTPA and L′=challenging chelator.
(§1) Equilibration of each solution was monitored by LC-MS. Relative distributions of [Gd(CyPic3A)(H2O)2]^− and CyPic3A were determined by integrating the corresponding absorbance traces at 280 nm. […] Kcomp values determined between [Gd(DTPA)(H2O)]^2− and various ligands were determined from conditional formation constants (Kcond)^4 values taken from the literature.^6-16 Direct comparisons were only made between Kcond values determined under identical conditions.

[2] = Ligand challenge, equilibrium constant Kcomp of MS-325 vs. L; assay type: physicochemical; details: calculated from literature thermodynamic data
Method: as §1

[3] = Zn(II) challenge of the Gd(III) complex of L; literature (ref 11); cited from earlier work
[4] = Kinetic inertness: Zn(II) transmetallation in phosphate buffer, followed by 1/T1; assay type: physicochemical
Description: Kinetic inertness was also taken into account in the evaluation of potential probes. In this regard, [Gd(CyPic3A)(H2O)2]^− was challenged with 1 equiv. [ZnPO4]^− as a slurry in pH 7.0 phosphate buffer at 310 K (see below). Several clinically utilized Gd(III) complexes have been benchmarked relative to one another in this manner.^37 As Gd(III) replaced by Zn(II) precipitates from the solution as GdPO4, the relaxation rate 1/T1 decreases. In this method, the time required to reach 80% of the initial 1/T1 value was utilized as an index of kinetic inertness.
Modified conditions of Muller and co-workers were used for this experiment.^11,12 Solutions containing 2.5 mM [Gd(CyPic3A)(H2O)2]^− and 2.5 mM Zn(OTf)2 were combined in pH 7.0 phosphate buffer (50 mM) and placed in an incubator shaker set to 310 K. Progress of the transchelation was monitored via the decrease in 1/T1 with time. Prior to measurement, aliquots were placed in small glass inserts and centrifuged to bring all insoluble material to the bottom so as not to interfere with the measurement.

HSA = HSA (Homo sapiens, UniProt P02768); experiment: HSA binding by ultrafiltration and ICP-MS (Example 3); assay type: in vitro ADME; details: 0.1 mM compound, 4.5% (w/v) HSA, 37° C.
Method: In order to measure HSA binding of the complexes, a 0.1 mM solution (determined by ICP-MS) of the corresponding Gd complex in 4.5% w/v HSA was prepared and pipetted into a Ultrafree-MC Microcentrifuge Filter (NMWL 5,000 Da, PLCC, Millipore). The mixture is incubated at 37° C. for 10 minutes and subsequently centrifuged at 12,000 rpm for 15 minutes. Binding is determined by measurement of Gd content in the filtrate by ICP-MS.

[5] = Relaxivity in the absence and presence of HSA (Example 3); assay type: physicochemical; details: for r1 (20 MHz), absence of HSA / r1 (60 MHz), absence of HSA: absence of HSA (first value of cell); for r1 (20 MHz), presence of HSA / r1 (60 MHz), presence of HSA: presence of HSA (second value of cell)
Method: ^1H and ^13C NMR spectra were recorded on a Varian 500 NMR system equipped with a 5 mm broadband probe. Longitudinal relaxation times, T1, were measured by using the inversion recovery method on Bruker Minispecs. mq20 (20 MHz) and mq60 (60 MHz). Purification via HPLC of intermediates toward Fmoc-DOTAla was performed using method A: Injection of crude mixture onto preparative HPLC on a Rainin, Dynamax (column: 250 mm Kromasil C18) by using A: 0.1% TFA in water, B: 0.1% TFA in MeCN, flow-rate 15 mL/min, 1 over 23 minutes. HPLC purity analysis (both UV and MS detection) was carried out on an Agilent 1100 system (column: Phenomenex Luna, C18(2) 100/2 mm) with UV detection at 220, 254 and 280 nm by using a method B: A gradient of A(0.1% formic acid in water) to 95% B(0.1% formic acid in MeCN), flow-rate 0.8 mL/min, 1 over 15 minutes.

[6] = Relaxivity of Gd(DOTAla) metallopeptides and reference agents (T1 inversion recovery, 37° C.); assay type: physicochemical
Method: Main numbers are given per Gd, numbers in parentheses are per molecule values. All numbers were determined at 37° C. using an inversion recovery sequence at concentrations ranging from 0.05 to 0.6 mM/Gd. Table 4 in Example 2 further expands the data of Table 1.
Per Gd relaxivities were determined by measuring T1 at 37° C. using 20, 60, 200, 400 and 500 MHz spectrometers. Relaxivities for MS-325 (with and without the presence of HSA) as a reference compound with a long τR and [Gd(HP-DO3A)(H2O)] as a reference for very short τR were also measured, and all the relaxivity data is tabulated in Table 4, together with results obtained from literature for the compounds with similar estimated τR. […] Additional rigidity through cyclization seems to provide only minor relaxivity increase for the dimeric and trimeric systems (Gd2C2 and Gd3C3).
Measurement of relaxivity. Longitudinal relaxation times T1, were measured on Bruker Minispecs mq20 (0.47 T) and mq60 (1.41 T), a Bruker Bioscan horizontal bore 4.7 T, 9.4 T and 11.7 T Varian NMR spectrometers. T1 was measured by using an inversion recovery method with 10 inversion time values ranging from 0.05×T1 to 5×T1. Relaxivity was calculated from a linear plot of 3 or 4 different concentrations (ranging from 0.01 to 0.5 mM, depending on amount of compound isolated) versus the corresponding inverse relaxation times. All samples were measured at 37° C. using either the internal temperature control of the instrument (0.47, 1.41, 9.4 and 11.7 T) or a warm air blower (4.7 T). MS-325/HSA was prepared in a 4.5% w/v solution of HSA (0.66 mM) in PBS. The MS-325 concentration (in presence of HSA) ranged from 0.05 to 0.15 mM.

[7] = cited from earlier work
[8] = 310 K, cited from earlier work; for r1 0.47 T 310K: literature (superscript refs); for r1 1.41 T 310K: cell says 1.5 T, literature (ref 17)
[9] = hydration state; literature (superscript refs); cited from earlier work
[10] = literature (refs 37, 38), cited from earlier work

Sequence of HSA (P02768 25-609): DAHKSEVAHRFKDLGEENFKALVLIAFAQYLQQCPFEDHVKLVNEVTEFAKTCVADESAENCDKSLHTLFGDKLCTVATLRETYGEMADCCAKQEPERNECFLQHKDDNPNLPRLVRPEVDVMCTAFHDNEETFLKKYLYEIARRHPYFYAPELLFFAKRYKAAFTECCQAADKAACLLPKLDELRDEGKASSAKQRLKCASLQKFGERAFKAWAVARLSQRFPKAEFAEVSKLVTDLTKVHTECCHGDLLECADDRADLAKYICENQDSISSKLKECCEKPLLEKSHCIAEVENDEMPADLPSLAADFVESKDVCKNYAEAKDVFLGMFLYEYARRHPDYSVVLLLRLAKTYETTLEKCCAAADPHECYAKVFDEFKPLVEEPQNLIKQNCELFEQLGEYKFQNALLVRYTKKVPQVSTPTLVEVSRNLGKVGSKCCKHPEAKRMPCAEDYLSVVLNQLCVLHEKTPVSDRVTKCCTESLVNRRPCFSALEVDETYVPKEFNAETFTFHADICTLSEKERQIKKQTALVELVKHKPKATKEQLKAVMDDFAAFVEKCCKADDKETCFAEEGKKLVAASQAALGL

Compound | Kcomp [Gd(DTPA)(H2O)]^2- vs. L pH 4 [1] | Kcomp, [Gd(DTPA)(H2O)]^2- vs. L pH 7.4 [1] | Kcomp MS-325 vs. L pH 4 [2] | Kcomp MS-325 vs. L pH 7.4 [2] | % HSA binding (HSA) [%] | r1 (20 MHz), absence of HSA [5] [mM⁻¹ s⁻¹] | r1 (20 MHz), presence of HSA [5] [mM⁻¹ s⁻¹] | r1 (60 MHz), absence of HSA [5] [mM⁻¹ s⁻¹] | r1 (60 MHz), presence of HSA [5] [mM⁻¹ s⁻¹] | other results
O=C(O)CN(CCN(CC(=O)O)C[C@H](COP(=O)(O)OC1CCC(c2ccccc2)(c2ccccc2)CC1)N(CC(=O)O)CC(=O)O)CC(=O)O | 0.57^5 | 2.88^5 | 1 | 1 |  |  |  |  |  | Time to 80% r1 (min) [3]: 3800^11 min
O=C(O)CN1CCNCCN(CC(=O)O)CCN(CC(=O)O)CC1 [DO3A] | 0.00048^5,6 | 0.0005^5,6 | 0.00046^5,6 | 0.00017^5,6 |  |  |  |  |  | Time to 80% r1 (min) [3]: inert^11
O=C(O)CN(CCN(CC(=O)O)CC(=O)O)CCN(CC(=O)O)CC(=O)O [DTPA] | 1 | 1 | 0.58^5 | 0.35^5 |  |  |  |  |  | Time to 80% r1 ([4]; Zn(II) challenge of the Gd(III) complex of L, this work): 383 min
COC(=O)CNC(=O)C(CN1CCN(CC(=O)O)CCN(CC(=O)O)CCN(CC(=O)O)CC1)NC(=O)C(N)Cc1cc(I)c(O)c(I)c1 (centres unmarked) [Gd (7), 2,2′,2″-(10-(2-(2-amino-3-(4-hydroxy-3,5-diiodophenyl)propanamido)-3-((2-methoxy-2-oxoethyl)amino)-3-oxopropyl)-1,4,7,10-tetraazacyclododecane-1,4,7-triyl)triacetic acid] |  |  |  |  | 6 | 4.7 | 7.05 | 3.9 | 6.9 | 
C[C@@H](NC(=O)C(CN1CCN(CC(=O)O)CCN(CC(=O)O)CCN(CC(=O)O)CC1)NC(=O)C(N)Cc1cc(I)c(O)c(I)c1)c1ccccc1 (stereo partly drawn) [Gd (13-R), 2,2′,2″-(10-(2-(2-amino-3-(4-hydroxy-3,5-diiodophenyl)propanamido)-3-oxo-3-(((R)-1-phenylethyl)amino)propyl)-1,4,7,10-tetraazacyclododecane-1,4,7-triyl)triacetic acid] |  |  |  |  | 36 | 6.6 | 18.4 | 6.4 | 11.4 | 
C[C@@H](NC(=O)C(CN1CCN(CC(=O)O)CCN(CC(=O)O)CCN(CC(=O)O)CC1)NC(=O)C(N)Cc1cc(I)c(O)c(I)c1)c1ccccc1 (stereo partly drawn) [Gd (13-S), 2,2′,2″-(10-(2-(2-amino-3-(4-hydroxy-3,5-diiodophenyl)propanamido)-3-oxo-3-(((R)-1-phenylethyl)amino)propyl)-1,4,7,10-tetraazacyclododecane-1,4,7-triyl)triacetic acid] |  |  |  |  | 39 | 7.1 | 18.5 | 6.1 | 10.9 | 
C[C@@H](C(=O)NC(CN1CCN(CC(=O)O)CCN(CC(=O)O)CCN(CC(=O)O)CC1)C(=O)N[C@@H](Cc1cc(I)c(O)c(I)c1)C(=O)O)c1ccccc1 (stereo partly drawn) [Gd (19), 2,2′,2″-(10-(3-(((S)-1-carboxy-2-(4-hydroxy-3,5-diiodophenyl)ethyl)amino)-3-oxo-2-((R)-2-phenylpropanamido)propyl)-1,4,7,10-tetraazacyclododecane-1,4,7-triyl)triacetic acid] |  |  |  |  | 69 | 6.0 | 30.7 | 6.4 | 21.8 | 
CC(O)CN1CCN(CC(=O)O)CCN(CC(=O)O)CCN(CC(=O)O)CC1 (centres unmarked) [HP-DO3A] | 0.22^6 | 0.19^6 | 0.16^5,6 | 0.07^5,6 |  |  |  |  |  | Time to 80% r1 (min) [3]: inert^11
O=C([O-])CN(CCN(CC(=O)[O-])C[C@H](COP(=O)([O-])OC1CCC(c2ccccc2)(c2ccccc2)CC1)N(CC(=O)[O-])CC(=O)[O-])CC(=O)[O-].[Gd+3].[H+].[H+].[H+] [MS-325, gadofosveset] |  |  |  |  |  |  |  |  |  | Relaxivity per Gd, 200 MHz ([6]; 200 MHz): 5.7 mM⁻¹ s⁻¹; Relaxivity per Gd, 200 MHz, with HSA ([6]; 200 MHz, presence of 4.5% HSA): 5.0 mM⁻¹ s⁻¹; Relaxivity per Gd, 400 MHz ([6]; 400 MHz (9.4 T)): 4.8 mM⁻¹ s⁻¹; Relaxivity per Gd, 400 MHz, with HSA ([6]; 400 MHz, presence of 4.5% HSA): 4.1 mM⁻¹ s⁻¹; Relaxivity per Gd, 500 MHz ([6]; 500 MHz): 4.7 mM⁻¹ s⁻¹; Relaxivity per Gd, 500 MHz, with HSA ([6]; 500 MHz, presence of 4.5% HSA): 3.7 mM⁻¹ s⁻¹; Relaxivity per Gd, 20 MHz ([7]; 20 MHz, 37° C., literature data (footnotes a, b, d)): 6.8^d mM^−1 s^−1; Relaxivity per Gd, 20 MHz, with HSA ([7]; 20 MHz, 37° C., presence of 4.5% HSA, from ref 22): 42^d mM^−1 s^−1; Relaxivity per Gd, 60 MHz ([7]; 60 MHz, 37° C., literature data (footnotes a, b, d)): 5.4^d mM^−1 s^−1; Relaxivity per Gd, 60 MHz, with HSA ([7]; 60 MHz, 37° C., presence of 4.5% HSA, from ref 22): 23.8^d mM^−1 s^−1; peak molecular relaxivity ([7]; HSA-associated): above 40 mM^−1s^−1; increase in relaxivity once associated with human serum albumin (HSA) ([7]; at low fields): over 8 fold; r1 0.47 T 310K [8]: 5.8^17 mM^−1s^−1; r1 1.41 T 310K [8]: 5.2 (1.5 T)^17 mM^−1s^−1; q [9]: 1^18
CNC(=O)CN(CCN(CCN(CC(=O)[O-])CC(=O)NC)CC(=O)[O-])CC(=O)[O-].[Gd+3] [[Gd(DTPA-BMA)(H2O)]] |  |  |  |  |  |  |  |  |  | time to 80% of the initial 1/T1 ([4]; 1 equiv. Zn(II), pH 7.0 phosphate buffer, 310 K): 124 min; r1 0.47 T 310K [8]: 3.5^17 mM^−1s^−1; r1 1.41 T 310K [8]: 3.3 (1.5 T)^17 mM^−1s^−1; q [9]: 1^16
Gd(DO3A-N-α-aminopropionate) [F] |  |  |  |  |  |  |  |  |  | ΔH^‡ ([10]; activation enthalpy of water exchange): 19.1 kJ/mol; ^310kex × 10^6 (s^−1) ([10]; water exchange rate at 310 K): 42 × 10^6 s^−1; ^310 TM (ns) ([10]; water residency time at 310 K (37° C.)): 24 ns
